Experimental data from patent publication US9682995B2, “Amino-substituted isothiazoles” (BAYER PHARMA AKTIENGESELLSCHAFT, priority 2013, dated 2017).
pIC50: −log10 of the molar value.

Experiments:
[1] = tested on: HeLa; assay: Proliferation assay (crystal violet), HeLa; assay type: cell-based; conditions: Homo sapiens, 96 h, 4 days, read-out: Inhibition of proliferation IC50 HeLa
Summary of the method: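 Tumour cells seeded at 1000–5000 cells/well in medium with 10% FCS, dosed after 24 h at 0.001–10 μM (0.5% DMSO final) for 4 days. Cell number read by crystal-violet staining after glutaraldehyde fixation (A595), normalised to zero-point plate (0%) and untreated cells (100%); IC50 from 4-parameter fit.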

[2] = target: human kinase Mps-1 (Homo sapiens (Human), UniProt P33981); assay: Mps-1 kinase assay (TR-FRET); assay type: biochemical; conditions: 10 μM ATP; read-out: Mps1 avg (IC50 [mol/l])
Chain of human kinase Mps-1 (P33981 whole entry): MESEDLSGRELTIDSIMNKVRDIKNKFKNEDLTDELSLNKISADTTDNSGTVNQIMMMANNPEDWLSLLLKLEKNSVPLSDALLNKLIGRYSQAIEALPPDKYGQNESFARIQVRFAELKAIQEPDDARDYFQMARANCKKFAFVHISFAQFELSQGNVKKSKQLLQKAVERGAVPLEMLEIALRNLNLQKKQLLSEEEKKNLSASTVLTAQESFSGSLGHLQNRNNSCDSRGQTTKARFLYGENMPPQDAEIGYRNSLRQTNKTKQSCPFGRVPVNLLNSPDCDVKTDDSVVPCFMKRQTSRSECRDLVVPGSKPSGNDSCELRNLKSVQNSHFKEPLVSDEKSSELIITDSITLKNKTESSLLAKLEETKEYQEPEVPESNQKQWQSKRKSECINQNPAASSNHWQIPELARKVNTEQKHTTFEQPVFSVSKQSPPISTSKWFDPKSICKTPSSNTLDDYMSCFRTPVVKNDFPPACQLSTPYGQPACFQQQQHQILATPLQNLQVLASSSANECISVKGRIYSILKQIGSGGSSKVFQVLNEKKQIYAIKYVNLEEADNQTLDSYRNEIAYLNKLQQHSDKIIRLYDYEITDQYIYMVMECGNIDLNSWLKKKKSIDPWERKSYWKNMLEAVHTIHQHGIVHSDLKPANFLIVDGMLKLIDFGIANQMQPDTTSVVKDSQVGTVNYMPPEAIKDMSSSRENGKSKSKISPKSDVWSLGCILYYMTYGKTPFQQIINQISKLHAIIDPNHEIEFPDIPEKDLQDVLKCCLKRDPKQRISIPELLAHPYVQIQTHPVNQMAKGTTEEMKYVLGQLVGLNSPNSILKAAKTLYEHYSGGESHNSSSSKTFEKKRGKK
Summary of the method: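 GST-tagged full-length human Mps-1 (~0.5 nM) preincubated 15 min with compound, then reacted 60 min at 22 °C with 10 μM ATP and 1 μM biotinylated peptide in Hepes pH 7.7 buffer. Phosphoproduct detected by TR-FRET (Eu anti-phospho-Ser/Thr, SA-XLent); 665/620 ratio normalised to no-inhibitor and no-enzyme controls.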

| pIC50 [1] | pIC50 [2] | SMILES |
| --- | --- | --- |
| 5.55 | < 4.70 | Cc1nsc(Nc2cnccn2)c1C(=O)Nc1ccc(F)c(F)c1 [Example 65, N-(3,4-Difluorophenyl)-3-methyl-5-(pyrazin-2-ylamino)-1,2-thiazole-4-carboxamide] |
| 6.04 | < 4.70 | Cc1nsc(Nc2ccc(C(F)(F)F)nn2)c1C(=O)Nc1ccc(F)c(F)c1 [Example 83, N-(3,4-Difluorophenyl)-3-methyl-5-{[6-(trifluoromethyl)pyridazin-3-yl]amino}-1,2-thiazole-4-carboxamide] |
| 5.60 | 4.80 | CCNc1cncc(Nc2snc(C)c2C(=O)Nc2ccc(F)c(F)c2)n1 [Example 78, N-(3,4-Difluorophenyl)-5-{[6-(ethylamino)pyrazin-2-yl]amino}-3-methyl-1,2-thiazole-4-carboxamide] |
| 5.19 | < 4.70 | CNC(=O)c1cncc(Nc2snc(C)c2C(=O)Nc2ccc(F)c(F)c2)n1 [Example 70, 6-({4-[(3,4-Difluorophenyl)carbamoyl]-3-methyl-1,2-thiazol-5-yl}amino)-N-methylpyrazine-2-carboxamide] |
| 5.39 | < 4.70 | Cc1nsc(Nc2cncc(-c3ncco3)n2)c1C(=O)Nc1ccc(Cl)c(F)c1 [Example 63, N-(4-Chloro-3-fluorophenyl)-3-methyl-5-{[6-(1,3-oxazol-2-yl)pyrazin-2-yl]amino}-1,2-thiazole-4-carboxamide] |
| 5.59 | < 4.70 | CCc1cncc(Nc2snc(C)c2C(=O)Nc2ccc(F)c(F)c2)n1 [Example 76, N-(3,4-Difluorophenyl)-5-[(6-ethylpyrazin-2-yl)amino]-3-methyl-1,2-thiazole-4-carboxamide] |
| 5.72 | < 4.70 | CNC(=O)c1cnc(Nc2snc(C)c2C(=O)Nc2ccc(F)c(F)c2)cn1 [Example 75, 5-({4-[(3,4-Difluorophenyl)carbamoyl]-3-methyl-1,2-thiazol-5-yl}amino)-N-methylpyrazine-2-carboxamide] |
| 5.92 | < 4.70 | CCNC(=O)c1cncc(Nc2snc(C)c2C(=O)Nc2ccc(F)c(F)c2)n1 [Example 73, 6-({4-[(3,4-Difluorophenyl)carbamoyl]-3-methyl-1,2-thiazol-5-yl}amino)-N-ethylpyrazine-2-carboxamide] |
| 5.82 | 4.72 | Cc1nsc(Nc2nc3c(C(F)(F)F)ccnc3s2)c1C(=O)Nc1ccc(F)c(F)c1 [Example 58, N-(3,4-Difluorophenyl)-3-methyl-5-{[7-(trifluoromethyl)[1,3]thiazolo[5,4-b]pyridin-2-yl]amino}-1,2-thiazole-4-carboxamide] |
| 6.59 | < 4.70 | Cc1nsc(Nc2cnc(Cl)cn2)c1C(=O)Nc1ccc(F)c(F)c1 [Example 74, 5-[(5-Chloropyrazin-2-yl)amino]-N-(3,4-difluorophenyl)-3-methyl-1,2-thiazole-4-carboxamide] |
| 6.38 | < 4.70 | Cc1nsc(Nc2ccc(C#N)cn2)c1C(=O)Nc1ccc(Cl)c(Cl)c1 [Example 62, 5-[(5-Cyanopyridin-2-yl)amino]-N-(3,4-dichlorophenyl)-3-methyl-1,2-thiazole-4-carboxamide] |
| 6.42 | < 4.70 | Cc1nsc(Nc2cnc(C(F)(F)F)cn2)c1C(=O)Nc1ccc(F)c(F)c1 [Example 81, N-(3,4-Difluorophenyl)-3-methyl-5-{[5-(trifluoromethyl)pyrazin-2-yl]amino}-1,2-thiazole-4-carboxamide] |
| 6.11 | < 4.70 | Cc1nsc(Nc2cncc(-n3cccn3)n2)c1C(=O)Nc1ccc(Cl)c(F)c1 [Example 67, N-(4-Chloro-3-fluorophenyl)-3-methyl-5-{[6-(1H-pyrazol-1-yl)pyrazin-2-yl]amino}-1,2-thiazole-4-carboxamide] |
| 6.14 | < 4.70 | Cc1nsc(Nc2cnc3cc(C(F)(F)F)ccc3n2)c1C(=O)Nc1ccc(F)c(F)c1 [Example 60, N-(3,4-Difluorophenyl)-3-methyl-5-{[6-(trifluoromethyl)quinoxalin-2-yl]amino}-1,2-thiazole-4-carboxamide] |
| 6.10 | < 4.70 | CCc1cnc(Nc2snc(C)c2C(=O)Nc2ccc(F)c(F)c2)cn1 [Example 79, N-(3,4-Difluorophenyl)-5-[(5-ethylpyrazin-2-yl)amino]-3-methyl-1,2-thiazole-4-carboxamide] |
| 5.77 | < 4.70 | COc1cncc(Nc2snc(C)c2C(=O)Nc2ccc(F)c(F)c2)n1 [Example 72, N-(3,4-Difluorophenyl)-5-[(6-methoxypyrazin-2-yl)amino]-3-methyl-1,2-thiazole-4-carboxamide] |
| 6.00 | < 4.70 | COC(=O)c1cnc(Nc2snc(C)c2C(=O)Nc2ccc(F)c(F)c2)cn1 [Example 59, Methyl 5-({4-[(3,4-difluorophenyl)carbamoyl]-3-methyl-1,2-thiazol-5-yl}amino)-pyrazine-2-carboxylate] |
| 5.59 | < 4.70 | COC(=O)c1cncc(Nc2snc(C)c2C(=O)Nc2ccc(F)c(F)c2)n1 [Example 66, Methyl 6-({4-[(3,4-difluorophenyl)carbamoyl]-3-methyl-1,2-thiazol-5-yl}amino)-pyrazine-2-carboxylate] |
| 5.80 |  | Cc1nsc(Nc2cncc(-n3cccn3)n2)c1C(=O)Nc1ccc(F)c(F)c1 [Example 64, N-(3,4-Difluorophenyl)-3-methyl-5-{[6-(1H-pyrazol-1-yl)pyrazin-2-yl]amino}-1,2-thiazole-4-carboxamide] |

Continued, compound first:

| SMILES | pIC50 [1] | pIC50 [2] |
| --- | --- | --- |
| COc1ccc(NC(=O)c2c(C)nsc2Nc2cnc3ccccc3n2)cn1 [Example 94, N-(6-Methoxypyridin-3-yl)-3-methyl-5-(quinoxalin-2-ylamino)-1,2-thiazole-4-carboxamide] | 5.00 | < 4.70 |
| CCc1ccccc1NC(=O)c1c(C)nsc1Nc1cnc2cc(Cl)ccc2n1 [Example 86, 5-[(6-Chloroquinoxalin-2-yl)amino]-N-(2-ethylphenyl)-3-methyl-1,2-thiazole-4-carboxamide] | 6.00 | < 4.70 |
| Cc1nsc(Nc2cnc3cc(C(F)(F)F)ccc3n2)c1C(=O)Nc1ccc(Cl)c(Cl)c1 [Example 61, N-(3,4-Dichlorophenyl)-3-methyl-5-{[6-(trifluoromethyl)quinoxalin-2-yl]amino}-1,2-thiazole-4-carboxamide] | 5.11 | < 4.70 |
| CCOC(=O)c1cnc(Nc2snc(C)c2C(=O)Nc2ccccc2CC)s1 [Example 92, Ethyl 2-({4-[(2-ethylphenyl)-carbamoyl]-3-methyl-1,2-thiazol-5-yl}amino)-1,3-thiazole-5-carboxylate] | 5.00 | < 4.70 |
| CCc1ccccc1NC(=O)c1c(C)nsc1Nc1cc(C#N)ccn1 [Example 4, 5-[(4-Cyanopyridin-2-yl)amino]-N-(2-ethylphenyl)-3-methyl-1,2-thiazole-4-carboxamide] | 5.49 | < 4.70 |
| COc1ccc(NC(=O)c2c(C)nsc2Nc2cncc(C(F)(F)F)n2)cn1 [Example 84, N-(6-methoxypyridin-3-yl)-3-methyl-5-{[6-(trifluoromethyl)pyrazin-2-yl]amino}-1,2-thiazole-4-carboxamide] | 6.54 | < 4.70 |
| CCOC(=O)c1sc(Nc2snc(C)c2C(=O)Nc2ccc(Cl)c(F)c2)nc1C [Example 95, Ethyl 2-({4-[(4-chloro-3-fluoro-phenyl)carbamoyl]-3-methyl-1,2-thiazol-5-yl}amino)-4-methyl-1,3-thiazole-5-carboxylate] | 5.92 | < 4.70 |
| CCc1ccccc1NC(=O)c1c(C)nsc1Nc1ncccc1C(F)(F)F [Example 3, N-(2-Ethylphenyl)-3-methyl-5-{[3-(trifluoromethyl)pyridin-2-yl]amino}-1,2-thiazole-4-carboxamide] | 5.11 | < 4.70 |
| CCc1ccccc1NC(=O)c1c(C)nsc1Nc1nc(C(=O)OC)co1 [Example 91, Methyl 2-({4-[(2-ethylphenyl)carbamoyl]-3-methyl-1,2-thiazol-5-yl}amino)-1,3-oxazole-4-carboxylate] | 5.01 |  |
| CCc1ccccc1NC(=O)c1c(C)nsc1Nc1ccncn1 [Example 2, N-(2-Ethylphenyl)-3-methyl-5-(pyrimidin-4-ylamino)-1,2-thiazole-4-carboxamide] | < 5.00 | < 4.70 |
| COc1ccc(NC(=O)c2c(C)nsc2Nc2nc3ccc(C)cc3s2)cn1 [Example 90, N-(6-Methoxypyridin-3-yl)-3-methyl-5-[(6-methyl-1,3-benzothiazol-2-yl)amino]-1,2-thiazole-4-carboxamide] | 5.00 | < 4.70 |
| COc1ccc2nc(Nc3snc(C)c3C(=O)Nc3ccc(OC)nc3)sc2c1 [Example 87, 5-[(6-Methoxy-1,3-benzothiazol-2-yl)amino]-N-(6-methoxypyridin-3-yl)-3-methyl-1,2-thiazole-4-carboxamide] | 5.55 |  |
| COc1ccc(NC(=O)c2c(C)nsc2Nc2nc3cccnc3s2)cn1 [Example 89, N-(6-Methoxypyridin-3-yl)-3-methyl-5-([1,3]thiazolo[5,4-b]pyridin-2-ylamino)-1,2-thiazole-4-carboxamide] | 5.44 | < 4.70 |
| COc1ccc(NC(=O)c2c(C)nsc2Nc2nc3ccc(F)cc3s2)cn1 [Example 88, 5-[(6-Fluoro-1,3-benzothiazol-2-yl)amino]-N-(6-methoxypyridin-3-yl)-3-methyl-1,2-thiazole-4-carboxamide] | 5.68 |  |
